Experimental data from patent publication US11345659B2, “Pipecolic esters for inhibition of the proteasome” (THE BOARD OF REGENTS OF THE UNIVERSY OF TEXAS SYSTEM, priority 2018, dated 2022).

Tests used:
Type in all cases: biochemical
[1] = target: T1, 20 S human housekeeping proteasome (Homo sapiens, UniProt P25787+P25789); test: ChT-L peptidase activity of 20 S proteasome activated with Rpt5 peptide; details: ChT-L, 20 S activated with Rpt5 peptide; for IC50: Suc-LLVY-AMC substrate, read-out: IC50
T1 construct: purified from erythrocytes; purchased Enzo Life Sciences, Inc. (Farmingdale, N.Y.); host or cells: human erythrocytes
Method: (§1) Human housekeeping 20 S and 26 S and complexes purified from erythrocytes were purchased from Enzo Life Sciences, Inc. (Farmingdale, N.Y.). The 1 mg/ml stock 20 S proteasome was diluted to 0.2 mg/ml working solution in 50 mM Tris/HCl, pH 8 containing 20% glycerol (dilution buffer). For the 26 S proteasome stock, the dilution buffer was supplemented with 2 mM ATP, 1 mM MgCl2, and 1 mM DTT (dithiothreitol). The ChT-L peptidase activity was measured as arbitrary intensity units of fluorescence emitted by 7-amino-4-methylcoumarin (AMC) released from the canonical model peptide substrate succinyl-LeuLeuValTyr-methylcoumarin (SucLLVY-MCA; Bachem Bioscience Inc., Philadelphia, Pa.), used at concentration of 100 μM. Free AMC (Sigma-Aldrich, St. Louis, Mo.) was used as the standard. The Rpt5 C-terminal peptide was synthesized (standard solid-phase peptide chemistry) and purified to at least 98% purity by GenScript (Piscataway, N.J.). The Rpt5 peptide and the peptide substrate were dissolved in dimethylsulfoxide (DMSO) and such stock solutions were stored at −20° C. The total concentration of DMSO in final reaction mixtures never exceeded 3% (vol/vol).
The reaction was carried out in 96-well plates, in 100 μL of reaction mixture, for 1 hour at 37° C. In the case of 20 S proteasome, the reaction mixture consisted of 45 mM Tris/HCl, pH 8, 100 mM KCl with premixed 10 μM Rpt5 peptide and 100 μM Suc-LLVY-MCA, to which 200 ng (nearly […]) of proteasome and desired concentration of tested compounds in 1 μL of DMSO were added. To test the activity of 26 S proteasome under conditions challenging coordination of the three pairs of peptidase active centers, a mixture of three canonical substrates specific for the ChT-L (SucLLVY-MCA), trypsin-like (T-L; BocLRR-MCA) and caspase-like (Casp-L; Z-LLE-MCA) was used with each of the substrates at 33.3 μM (100 μM of the total substrate concentration). The reaction mixture in this case consisted of 50 mM Tris/HCl, pH 8, 20 mM NaCl, premixed with the substrates and 2 mM ATP, to which 200 ng (nearly 0.1 nmol) of the 26 S working solution and desired concentration of tested compounds in 0.5 μL of DMSO were added. The reaction rates were calculated from a linear segment of kinetic curves constructed from measurements in 1-minutes intervals (Fluoroskan Ascent plate reader; Thermo Fisher Scientific Inc., Waltham, Mass.). Reaction rates were calculated using a linear fit executed by Slope Analyzer and Enzyme Kinetics applications launched within Origin Pro 2017 (OriginLab). Specific activity of the control 20 S proteasome activated with the Rpt5 peptide was in the range of 1.4 to 2.3 nanomoles of AMC product released by 1 mg of 20 S per second (1.95±0.24; n=18). Specific activity of the control 26 S proteasome challenged with three substrates reached on average 0.28±0.06 nanomoles of AMC product released by 1 mg of the enzyme per second (n=6). For comparison, degradation of the canonical Suc-LLVY-MCA substrate by the control 26 S proteasome preceded with a rate in the range of 0.6-0.8 nanomoles of AMC released per mg of the enzyme per second. The data are presented as mean±SD or as a representative set from at least 3 independent experiments.
The compounds were evaluated using the 20 S human housekeeping proteasome. It was activated with the Rpt5 derived 10-residue peptide that contains the C-terminal HbYX (hydrophobic-Tyr-any AA) motif activating the proteasome in trans and to some extend mimic the activation by the 19 S regulatory particle (Osmulski and Gaczynska (2013) Molecular pharmacology 84: 104-113; Smith et al. (2006) J. Struct. Biol. 156: 72-83; Smith et al. (2007) Mol. Cell 27: 731-744). Proteolytic activity was monitored over time using a fluorogenic peptide substrate specific for the chymotrypsin-like active center (ChT-L, Suc-LLVY-AMC) in the presence of a concentration range of the inhibitors. […]

26 S proteasome = target: T2, 26 S proteasome (Homo sapiens, UniProt P25787+P25789); test: 26 S proteasome challenged with mixture of three substrates (surrogate proteinase assay); details: mixture of ChT-L, T-L and Casp-L substrates, 33.3 μM each; read-out: IC50, 26 S proteasome with substrates for all three peptidases
T2 construct: purified from erythrocytes; purchased Enzo Life Sciences, Inc. (Farmingdale, N.Y.); host or cells: human erythrocytes
Method: as §1
The reaction was carried out in 96-well plates, in 100 μL of reaction mixture, for 1 hour at 37° C. In the case of 20 S proteasome, the reaction mixture consisted of 45 mM Tris/HCl, pH 8, 100 mM KCl with premixed 10 μM Rpt5 peptide and 100 μM Suc-LLVY-MCA, to which 200 ng (nearly […]) of proteasome and desired concentration of tested compounds in 1 μL of DMSO were added. […] The reaction rates were calculated from a linear segment of kinetic curves constructed from measurements in 1-minutes intervals (Fluoroskan Ascent plate reader; Thermo Fisher Scientific Inc., Waltham, Mass.). Reaction rates were calculated using a linear fit executed by Slope Analyzer and Enzyme Kinetics applications launched within Origin Pro 2017 (OriginLab). […]

[2] = target: T3, latent core 20 S proteasome (Homo sapiens, UniProt P25787+P25789); test: Competition of compound 3 with tRpt6 peptide, ChT-L activity of latent core; details: 2 μM tRpt6
T3 construct: purified from erythrocytes; purchased Enzo Life Sciences, Inc. (Farmingdale, N.Y.); host or cells: human erythrocytes
Text: According to the most recent model of the 26 S proteasome dynamic cycle, Rpt6 succeeds the Hb-Y—X containing anchor subunits Rpt5, Rpt3, and Rpt2 in docking into the α face pockets and promoting an intermediate conformation between latent and activated (open gate) proteasomes (Dong et al. ([…]) Nature 565(7737): 49-55). […] For comparison, no competition between tRpt5, expected to occupy the α5/α6 pocket, and compound 3 was detected.
Referring to FIG. 4, the C-terminal peptide derived from Rpt6 subunit compromises inhibition of the ChT-L activity of the latent core by the compound 3; however, only when added to the proteasome prior to the inhibitor. […] 1 μM compound 3 and 2 μM tRpt6 were tested. Mean±SD; n=3 to 6.

| Molecule | IC50 [1] [µM] | ChT-L inhibitory activity in words [1] | IC50 (26 S proteasome) [µM] | effect of peptide alone on proteasome activity [2] |
| --- | --- | --- | --- | --- |
| COc1cc(CCCOC(=O)C2CCCCN2C(=O)OCc2ccccc2)cc(OC)c1OC (racemic) [Compound 2, 1-benzyl 2-(3-(3,4,5-trimethoxyphenyl)propyl)piperidine-1,2-dicarboxylate] | 11.5 | – | – | – |
| COc1cc(COC(=O)[C@@H]2CCCCN2C(=O)OCc2ccccc2)cc(OC)c1OC (stereo in doubt) [Compound 8, 1-benzyl 2-(3,4,5-trimethoxybenzyl) piperidine-1,2-dicarboxylate] | 19.8 | significantly reduced its activity | – | – |
| COc1cc(CCCOC(=O)[C@@H]2CCCCN2C(=O)OCC(C)C)cc(OC)c1OC [Compound 4, 1-isobutyl 2-(3-(3,4,5-trimethoxyphenyl)propyl) (S)-piperidine-1,2-dicarboxylate] | 15.2 | – | – | – |
| COC(=O)N1CCCC[C@H]1C(=O)OCCCc1cc(OC)c(OC)c(OC)c1 [Compound 5, 1-methyl 2-(3-(3,4,5-trimethoxyphenyl)propyl) (S)-piperidine-1,2-dicarboxylate] | > 50 | completely abrogated activity | – | – |
| COc1cc(CCCOC(=O)[C@@H]2CCCN(C(=O)OCc3ccccc3)C2)cc(OC)c1OC [Compound 6, 1-benzyl 3-(3-(3,4,5-trimethoxyphenyl)propyl) (R)-piperidine-1,3-dicarboxylate] | 14.7 | – | – | – |
| COc1cc(CCOC(=O)[C@@H]2CCCCN2C(=O)OCc2ccccc2)cc(OC)c1OC [Compound 7, 1-benzyl 2-(3,4,5-trimethoxyphenethyl) (S)-piperidine-1,2-dicarboxylate] | 20.1 | significantly reduced its activity | – | – |
| O=C(OCCCc1ccccc1)[C@@H]1CCCCN1C(=O)OCc1ccccc1 [Compound 9, 1-benzyl 2-(3-phenylpropyl) (S)-piperidine-1,2-dicarboxylate] | 2.6 | – | > 60 | – |
| CCCOC(=O)[C@@H]1CCCCN1C(=O)OCc1ccccc1 [Compound 10, 1-benzyl 2-propyl (S)-piperidine-1,2-dicarboxylate] | > 50 | inactive | – | – |
| O=C(O)[C@@H]1CCCCN1C(=O)OCc1ccccc1 [Compound 11, 1-((benzyloxy)carbonyl) (S)-piperidine-2-carboxylic Acid] | > 50 | inactive | – | – |
| COc1cc(CCCOC(=O)[C@@H]2CCCN2C(=O)OCc2ccccc2)cc(OC)c1OC [Compound 12, 1-benzyl 2-(3-(3,4,5-trimethoxyphenyl)propyl) (S)-pyrrolidine-1,2-dicarboxylate] | 23.8 | only had modest activity | – | – |
| O=C(OCCCc1ccccc1)[C@@H]1CCCN1C(=O)OCc1ccccc1 [Compound 13, 1-benzyl 2-(3-phenylpropyl) (S)-pyrrolidine-1,2-dicarboxylate] | 6.6 | – | – | – |
| O=C(OCCc1ccccc1)[C@@H]1CCCN1C(=O)OCc1ccccc1 [Compound 14, 1-benzyl 2-phenethyl (S)-pyrrolidine-1,2-dicarboxylate] | 19.2 | decreased activity | – | – |
| O=C(OCc1ccccc1)[C@@H]1CCCN1C(=O)OCc1ccccc1 [Compound 15, Dibenzyl (S)-pyrrolidine-1,2-dicarboxylate] | 33.5 | decreased activity | – | – |
| tRpt6: 10-residue peptide derived from C-terminal fragment of Rpt6 (KNMSIKKLWK) [reference compound] | – | – | – | did not affect the proteasome activity |
